Measured values from ChEMBL document CHEMBL1154552, “Two new prenylated 3-benzoxepin derivatives as cyclooxygenase inhibitors from Perilla frutescens var. acuta” (J Nat Prod, 2000).

Tests used:
[1] = target: T1, Prostaglandin G/H synthase 1 (Ovis aries, UniProt P05979); assay: Inhibition of COX1 in ram seminal vesicle microsomes assessed as reduction of PGE2 formation; set-up: species or system Microsome
T1 sequence (P05979 whole entry): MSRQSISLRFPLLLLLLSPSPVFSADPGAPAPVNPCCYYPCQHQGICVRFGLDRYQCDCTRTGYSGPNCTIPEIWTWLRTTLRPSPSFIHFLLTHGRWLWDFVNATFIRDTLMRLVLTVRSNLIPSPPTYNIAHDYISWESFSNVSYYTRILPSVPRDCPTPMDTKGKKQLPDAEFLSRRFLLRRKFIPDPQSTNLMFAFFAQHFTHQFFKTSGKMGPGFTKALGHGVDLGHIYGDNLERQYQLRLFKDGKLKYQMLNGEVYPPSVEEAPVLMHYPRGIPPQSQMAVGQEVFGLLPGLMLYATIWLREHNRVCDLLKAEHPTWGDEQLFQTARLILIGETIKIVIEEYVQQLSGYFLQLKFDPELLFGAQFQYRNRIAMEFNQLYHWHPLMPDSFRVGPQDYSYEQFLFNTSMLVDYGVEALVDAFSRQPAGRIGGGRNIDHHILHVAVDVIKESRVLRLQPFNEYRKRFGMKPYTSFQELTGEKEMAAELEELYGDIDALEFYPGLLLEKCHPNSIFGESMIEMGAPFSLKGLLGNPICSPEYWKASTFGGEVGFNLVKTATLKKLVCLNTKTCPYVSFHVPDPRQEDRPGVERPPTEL

[2] = target: T2, Prostaglandin G/H synthase 1 (Ovis aries) (UniProt P05979); conditions: Seminal vesicle, Microsome, 5 uM
T2 sequence (whole entry): T1 sequence (P05979 whole entry)
Description: Inhibition of COX1 in ram seminal vesicle microsomes assessed as reduction of PGE2 formation at 5 uM

SMILES	IC50 [1]	inhibition [2]
COc1cc2cc(C(C)(C)O)oc2c2c1C=COC=C2	30.4 µM	–
COc1cc2c(c3c1C=COC=C3)O[C@@H](C(C)(C)O)C2 [PERILLOXIN]	23.2 µM	–
COc1ccc2c(c1)c(CC(=O)O)c(C)n2C(=O)c1ccc(Cl)cc1	–	0.2%
